In the supplement of paper PMC10307832:

What was measured:
Test in all cases: relative viability (nuclei count vs DMSO), 5 days (fraction); higher = more cells survive
[1] = test system: NCI-H1666
Procedure, shortened: (§1)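 Five library-drug doses in √10 steps were combined with a fixed anchor-drug dose, or a single drug was given alone, by pin tool to lung cancer cell lines in 1536-well plates the day after seeding. Nuclei were stained and counted after 5 days. Relative viability is the nuclei count in treated wells over that in vehicle wells, taken as the median of duplicate plates.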

[2] = test system: CAL-12T
Procedure, shortened: as §1

[3] = test system: NCI-H1650
Procedure, shortened: as §1

[4] = test system: HCC-366
Procedure, shortened: as §1

[5] = test system: NCI-H838
Procedure, shortened: as §1

[6] = test system: NCI-H2023
Procedure, shortened: as §1

[7] = test system: COR-L23
Procedure, shortened: as §1

[8] = test system: SW 900
Procedure, shortened: as §1

[9] = test system: LK-2
Procedure, shortened: as §1

[10] = test system: 201T
Procedure, shortened: as §1

[11] = test system: EKVX
Procedure, shortened: as §1

[12] = test system: NCI-H3122
Procedure, shortened: as §1

Clc1ccc(Nc2nnc(Cc3ccncc3)c3ccccc23)cc1 [Vatalanib] + O=C(c1cc(Cc2n[nH]c(=O)c3ccccc23)ccc1F)N1CCN(C(=O)C2CC2)CC1 [Olaparib] (partner 8 µM)
relative viability ([1]; first compound 0.04 µM): 0.72
relative viability ([1]; first compound 0.1265 µM): 0.832
relative viability ([1]; first compound 0.4 µM): 0.804
relative viability ([1]; first compound 1.265 µM): 0.798
relative viability ([1]; first compound 4 µM): 0.752
relative viability ([2]; first compound 0.04 µM): 0.692
relative viability ([2]; first compound 0.1265 µM): 0.645
relative viability ([2]; first compound 0.4 µM): 0.773
relative viability ([2]; first compound 1.265 µM): 0.697
relative viability ([2]; first compound 4 µM): 0.672
relative viability ([3]; first compound 0.04 µM): 0.985
relative viability ([3]; first compound 0.1265 µM): 0.734
relative viability ([3]; first compound 0.4 µM): 0.852
relative viability ([3]; first compound 1.265 µM): 0.74
relative viability ([3]; first compound 4 µM): 0.798
relative viability ([4]; first compound 0.04 µM): 0.337
relative viability ([4]; first compound 0.1265 µM): 0.34
relative viability ([4]; first compound 0.4 µM): 0.416
relative viability ([4]; first compound 1.265 µM): 0.334
relative viability ([4]; first compound 4 µM): 0.303
relative viability ([5]; first compound 0.04 µM): 0.774
relative viability ([5]; first compound 0.1265 µM): 0.741
relative viability ([5]; first compound 0.4 µM): 0.824
relative viability ([5]; first compound 1.265 µM): 0.722
relative viability ([5]; first compound 4 µM): 0.702
relative viability ([6]; first compound 0.04 µM): 0.403
relative viability ([6]; first compound 0.1265 µM): 0.444
relative viability ([6]; first compound 0.4 µM): 0.447
relative viability ([6]; first compound 1.265 µM): 0.48
relative viability ([6]; first compound 4 µM): 0.422
relative viability ([7]; first compound 0.04 µM): 0.363
relative viability ([7]; first compound 0.1265 µM): 0.356
relative viability ([7]; first compound 0.4 µM): 0.402
relative viability ([7]; first compound 1.265 µM): 0.337
relative viability ([7]; first compound 4 µM): 0.345
relative viability ([8]; first compound 0.04 µM): 0.759
relative viability ([8]; first compound 0.1265 µM): 0.674
relative viability ([8]; first compound 0.4 µM): 0.997
relative viability ([8]; first compound 1.265 µM): 0.853
relative viability ([8]; first compound 4 µM): 0.93
relative viability ([9]; first compound 0.04 µM): 0.723
relative viability ([9]; first compound 0.1265 µM): 0.72
relative viability ([9]; first compound 0.4 µM): 0.792
relative viability ([9]; first compound 1.265 µM): 0.702
relative viability ([9]; first compound 4 µM): 0.816
relative viability ([10]; first compound 0.04 µM): 0.833
relative viability ([10]; first compound 0.1265 µM): 0.83
relative viability ([10]; first compound 0.4 µM): 0.904
relative viability ([10]; first compound 1.265 µM): 0.842
relative viability ([10]; first compound 4 µM): 0.83
relative viability ([11]; first compound 0.04 µM): 0.955
relative viability ([11]; first compound 0.1265 µM): 0.885
relative viability ([11]; first compound 0.4 µM): 0.851
relative viability ([11]; first compound 1.265 µM): 0.66
relative viability ([11]; first compound 4 µM): 0.756
relative viability ([12]; first compound 0.04 µM): 0.593
relative viability ([12]; first compound 0.1265 µM): 0.668
relative viability ([12]; first compound 0.4 µM): 0.689
relative viability ([12]; first compound 1.265 µM): 0.592
